Data: patent US7220740B2, “1,4-diazabicyclo[3.2.2]nonabenzoxazole, -benzothiazole and benzimidazole derivatives, preparation and therapeutic use thereof” (Sanofi-aventis, priority 2000, dated 2007)

melting point: 158 to 160 °C
SMILES: O=[N+]([O-])c1ccc2oc(N3CCN4CCC3CC4)nc2c1
